Test [1] addresses NR2B-subtype NMDA receptors (Rattus norvegicus (Rat), UniProt P35439+Q00960). The experiment in a line: Radioligand binding assay (3H Ro 25-6981 competition, rat forebrain membranes). Particulars: 3H Ro 25-6981 (4 nM). The protocol: Radioligand Binding Assay.
Binding experiments to determine binding to NR2B-subtype NMDA receptors were performed on forebrains of 8-10 weeks old male Sprague Dawley rats (Harlan, Netherlands) using ^3H Ro 25-6981 (Mutel V; Buchy D; Klingelschmidt A; Messer J; Bleuel Z; Kemp J A; Richards J G. Journal of Neurochemistry, 1998, 70(5):2147-2155. Rats were decapitated without anesthesia using a Guillotine (approved by animal ethics committee) and the harvested brains were snap-frozen and stored at −80° C. for 3-6 months for membrane preparation.
For membrane preparation, rat forebrains were thawed on ice for 20 minutes in homogenization buffer composed of 50 mM KH2PO4 (pH adjusted to 7.4 with KOH), 1 mM EDTA, 0.005% Triton X 100 and protease inhibitor cocktail (Sigma Aldrich). Thawed brains were homogenized using a Dounce homogenizer and centrifuged at 48000×g for 20 min. The pellet was resuspended in cold buffer and homogenized again using a Dounce homogenizer. Subsequently, the homogenate was aliquoted, snap-frozen and stored at −80° C. for not more than 3-4 months.
To perform the competition binding assay, thawed membrane homogenate was added to each well of a 96-well plate (20 μg/well). […] The filter plates were dried at 50° C. for 20 mins, incubated with microscint 20 for 10 minutes and finally, the counts were read on TopCount (Perkin Elmer).

The target of test [2] is brain-resident NR2B-subtype receptors (Mus musculus (Mouse), UniProt P35438+Q01097). Put plainly: Ex vivo occupancy assay. The conditions noted are these: animals after dosing; no dose stated. The format is in vivo. The protocol: 7-9 weeks old male CD-1 mice were dosed intravenously in a vehicle consisting of 10% dimethylacetamide, 40% PEG-400, 30% hydroxypropyl betacyclodextrin, and 30% water with experimental compounds and the forebrains were harvested 15 minutes post-dosing by decapitation. The brain samples were immediately snap-frozen and stored at −80° C. On the following day, the dosed brain samples were thawed on ice for 15-20 minutes followed by homogenization using Polytron for 10 seconds in cold homogenization buffer composed of 50 mM KH2PO4 (pH adjusted to 7.4 with KOH), 1 mM EDTA, 0.005% Triton X 100 and protease inhibitor cocktail (Sigma Aldrich). The crude homogenates were further homogenized using a Dounce homogenizer and the homogenized membrane aliquots from all animals were flash-frozen and stored at −80° C. until further use. The whole homogenization process was performed on ice. For determining occupancy, the membrane homogenates were first thawed on ice and then needle-homogenized using a 25 gauge needle. The homogenized membrane (6.4 mg/ml) was added to a 96-well plate followed by addition of ^3H Ro 25-6981 (6 nM). […] The filter plates were dried at 50° C. for 20 mins, incubated with microscint 20 for 10 minutes and read on TopCount (Perkin Elmer). […] Non-specific binding was determined using 10 μM Ro 25-6981 added to the wells containing membrane homogenates from vehicle-dosed animals. […]
Sequence of brain-resident NR2B-subtype receptors (Q01097 27-1482, other chains not shown): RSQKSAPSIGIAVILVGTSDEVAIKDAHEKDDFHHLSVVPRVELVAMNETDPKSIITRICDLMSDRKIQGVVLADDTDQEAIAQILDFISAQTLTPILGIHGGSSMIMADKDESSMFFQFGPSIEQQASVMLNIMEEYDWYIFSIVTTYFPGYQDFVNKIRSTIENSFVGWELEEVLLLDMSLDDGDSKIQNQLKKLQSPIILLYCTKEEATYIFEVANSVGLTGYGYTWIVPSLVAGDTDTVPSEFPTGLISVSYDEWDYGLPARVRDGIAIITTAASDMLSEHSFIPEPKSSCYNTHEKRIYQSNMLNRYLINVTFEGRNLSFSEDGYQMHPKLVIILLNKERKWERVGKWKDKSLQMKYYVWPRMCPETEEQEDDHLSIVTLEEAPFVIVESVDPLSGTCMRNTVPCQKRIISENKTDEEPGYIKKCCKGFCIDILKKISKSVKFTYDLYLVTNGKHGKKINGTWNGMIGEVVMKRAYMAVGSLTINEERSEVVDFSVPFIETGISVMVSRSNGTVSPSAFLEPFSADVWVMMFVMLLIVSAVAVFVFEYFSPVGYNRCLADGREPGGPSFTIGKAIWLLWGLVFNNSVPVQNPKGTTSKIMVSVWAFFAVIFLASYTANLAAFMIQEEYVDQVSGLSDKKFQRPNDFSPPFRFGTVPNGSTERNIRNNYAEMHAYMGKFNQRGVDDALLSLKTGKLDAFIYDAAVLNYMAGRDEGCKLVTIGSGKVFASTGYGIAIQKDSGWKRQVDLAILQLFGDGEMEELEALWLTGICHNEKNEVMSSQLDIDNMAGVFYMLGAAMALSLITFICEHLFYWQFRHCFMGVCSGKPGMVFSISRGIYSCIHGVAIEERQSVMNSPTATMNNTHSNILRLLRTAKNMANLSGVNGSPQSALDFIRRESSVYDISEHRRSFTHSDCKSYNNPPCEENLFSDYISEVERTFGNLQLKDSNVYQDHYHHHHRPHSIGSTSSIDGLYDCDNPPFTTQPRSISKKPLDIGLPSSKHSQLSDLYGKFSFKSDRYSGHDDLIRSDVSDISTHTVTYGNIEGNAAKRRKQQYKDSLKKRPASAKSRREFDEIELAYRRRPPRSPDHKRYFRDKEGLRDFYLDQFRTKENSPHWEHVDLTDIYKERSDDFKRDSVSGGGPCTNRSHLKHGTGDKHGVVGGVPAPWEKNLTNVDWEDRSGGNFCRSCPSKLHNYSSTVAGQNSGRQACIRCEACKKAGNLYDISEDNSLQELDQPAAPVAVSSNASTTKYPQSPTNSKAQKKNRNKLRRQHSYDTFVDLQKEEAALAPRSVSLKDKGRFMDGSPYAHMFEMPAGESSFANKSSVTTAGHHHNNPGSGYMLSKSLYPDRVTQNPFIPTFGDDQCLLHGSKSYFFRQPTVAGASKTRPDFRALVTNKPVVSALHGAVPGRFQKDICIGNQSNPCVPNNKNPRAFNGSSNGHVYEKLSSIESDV

In a further test the test system is mice. Put plainly: Mouse Forced Swim Test (mFST). Format: in vivo. Particulars: 1 mg/Kg i.v., 15 min before swim session. The protocol: Mouse Forced Swim Test (mFST).
Forced Swim Test (FST) is an animal model used to assess antidepressant compounds in preclinical studies. The FST was performed similar to the method of Porsolt et al. with modifications (Porsolt R D, Bertin A, Jalfre M. Behavioral despair in mice: a primary screening test for antidepressants. Arch Int Pharmacodyn Ther 1977; 229:327-36). In this paradigm, mice are forced to swim in an inescapable cylinder filled with water. Under these conditions, mice will initially try to escape and eventually develop immobility behavior; this behavior is interpreted as a passive stress-coping strategy or depression-like behavior. […] The duration of immobility was evaluated during the total 6 min of the test and expressed as duration (sec) of immobility. […] All testing sessions were recorded with a video camera (Sony Handicam, Model: DCR-HC38E; PAL) and scoring was done using the Forced Swim Scan, Version 2.0 software (Clever Systems Inc., Reston, Va., USA; see Hayashi E, Shimamura M, Kuratani K, Kinoshita M, Hara H. Automated experimental system capturing three behavioral components during murine forced swim test. Life Sci. 2011 Feb. 28; 88(9-10):411-7 and Yuan P, Tragon T, Xia M, Leclair C A, Skoumbourdis A P, Zheng W, Thomas C J, Huang R, Austin C P, Chen G, Guitart X. Phosphodiesterase 4 inhibitors enhance sexual pleasure-seeking activity in rodents. […]

The term Ki denotes a measure of affinity in units of concentration, obtained from inhibition or displacement. High values mean lower affinity, low ones higher affinity.

Sequence of NR2B-subtype NMDA receptors (Q00960 27-1482, other chains not shown): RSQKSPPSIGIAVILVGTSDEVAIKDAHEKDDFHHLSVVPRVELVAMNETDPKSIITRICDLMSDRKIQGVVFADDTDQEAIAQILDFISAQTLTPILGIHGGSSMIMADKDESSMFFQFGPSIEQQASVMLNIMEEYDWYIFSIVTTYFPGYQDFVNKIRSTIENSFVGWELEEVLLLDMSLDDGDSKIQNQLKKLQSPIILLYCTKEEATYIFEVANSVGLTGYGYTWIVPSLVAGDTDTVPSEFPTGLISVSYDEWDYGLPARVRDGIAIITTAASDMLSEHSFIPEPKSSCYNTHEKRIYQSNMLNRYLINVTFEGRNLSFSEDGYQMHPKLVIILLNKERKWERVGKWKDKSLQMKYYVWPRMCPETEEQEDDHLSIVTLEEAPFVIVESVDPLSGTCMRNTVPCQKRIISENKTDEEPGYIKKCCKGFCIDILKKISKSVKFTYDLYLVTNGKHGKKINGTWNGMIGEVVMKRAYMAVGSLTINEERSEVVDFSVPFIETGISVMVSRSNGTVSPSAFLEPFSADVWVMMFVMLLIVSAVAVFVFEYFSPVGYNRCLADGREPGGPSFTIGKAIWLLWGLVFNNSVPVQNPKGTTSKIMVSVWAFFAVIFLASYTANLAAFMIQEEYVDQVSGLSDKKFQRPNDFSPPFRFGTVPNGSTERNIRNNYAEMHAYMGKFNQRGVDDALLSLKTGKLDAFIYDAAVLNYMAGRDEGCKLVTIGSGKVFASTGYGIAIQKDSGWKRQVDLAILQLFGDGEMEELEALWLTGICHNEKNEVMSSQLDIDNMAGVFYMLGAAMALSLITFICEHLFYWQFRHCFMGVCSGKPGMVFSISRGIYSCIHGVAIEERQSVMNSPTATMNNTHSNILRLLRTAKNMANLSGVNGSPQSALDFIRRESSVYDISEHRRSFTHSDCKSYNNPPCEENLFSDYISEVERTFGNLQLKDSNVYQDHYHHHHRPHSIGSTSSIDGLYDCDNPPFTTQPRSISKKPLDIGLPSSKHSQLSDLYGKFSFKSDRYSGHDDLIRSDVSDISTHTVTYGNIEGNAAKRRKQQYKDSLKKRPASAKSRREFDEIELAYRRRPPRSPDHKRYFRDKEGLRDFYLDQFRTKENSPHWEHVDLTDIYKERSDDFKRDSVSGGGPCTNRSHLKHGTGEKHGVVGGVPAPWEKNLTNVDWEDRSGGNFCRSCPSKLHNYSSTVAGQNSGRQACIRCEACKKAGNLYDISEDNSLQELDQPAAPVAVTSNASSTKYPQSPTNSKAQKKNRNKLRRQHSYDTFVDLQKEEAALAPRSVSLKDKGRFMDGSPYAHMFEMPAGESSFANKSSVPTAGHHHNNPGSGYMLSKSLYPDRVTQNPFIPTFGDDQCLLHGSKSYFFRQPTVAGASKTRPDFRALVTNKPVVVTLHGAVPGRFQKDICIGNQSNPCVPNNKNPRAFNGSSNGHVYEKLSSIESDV

In test [1], `O=C1C(N2CCC(c3ccc(O)cn3)CC2)CON1Cc1ccc(F)cc1` (racemic) [Example 3, 2-(4-fluorobenzyl)-4-(4-(5-hydroxypyridin-2-yl)piperidin-1-yl)isoxazolidin-3-one] came in with a Ki of 15.1 nM. In test [1], `Cc1ccc(CN2OCCC(N3CCC(c4ccc(O)cc4)CC3)C2=O)cc1` (racemic) [Example 4, 4-(4-(4-hydroxyphenyl)piperidin-1-yl)-2-(4-methylbenzyl)-1,2-oxazinan-3-one] registered a Ki of 5.49 nM. Regarding `Cc1ccc(CN2OCC(N3CCC(c4ccc(O)cc4)CC3)C2=O)cc1` (single isomer, unassigned) [2,P-2, 4-(4-(4-hydroxyphenyl)piperidin-1-yl)-2-(4-methylbenzyl)isoxazolidin-3-one], in test [2], the “occupancy of brain-resident NR2B-subtype receptors (in words)” value was “occupies brain-resident NR2B-subtype receptors”. For `Cc1ccc(CN2OCC(N3CCN(c4ccc(O)cn4)CC3)C2=O)cc1` (single isomer, unassigned) [10,P-1, 4-(4-(5-hydroxypyridin-2-yl)piperazin-1-yl)-2-(4-methylbenzyl)isoxazolidin-3-one], in the test with mice, the immobility time entry is “statistically significant decrease in immobility time”.
